One assay has as its target T1, Human CD73 (Homo sapiens, UniProt P21589).
T1 construct: purchased R&D Systems; host or cells: CHO cells
T1 sequence (P21589 27-549): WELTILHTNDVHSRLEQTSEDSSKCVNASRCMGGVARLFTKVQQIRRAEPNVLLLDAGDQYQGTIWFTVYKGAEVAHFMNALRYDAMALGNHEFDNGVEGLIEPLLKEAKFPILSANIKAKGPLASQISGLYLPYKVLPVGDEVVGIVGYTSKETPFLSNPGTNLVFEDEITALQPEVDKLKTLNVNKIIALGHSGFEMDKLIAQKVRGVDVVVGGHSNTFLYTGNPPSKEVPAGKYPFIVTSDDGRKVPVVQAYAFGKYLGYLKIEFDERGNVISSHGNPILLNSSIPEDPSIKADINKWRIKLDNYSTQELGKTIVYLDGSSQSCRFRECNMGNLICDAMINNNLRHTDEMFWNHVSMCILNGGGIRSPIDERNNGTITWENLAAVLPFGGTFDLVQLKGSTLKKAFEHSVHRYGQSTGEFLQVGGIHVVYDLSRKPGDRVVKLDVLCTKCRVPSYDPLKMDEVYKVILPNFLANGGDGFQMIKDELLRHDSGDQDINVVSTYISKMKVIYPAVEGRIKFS
The assay is described as follows: CD73 Enzyme Assay (EnzChek PNP/MESG kinetic readout of AMP hydrolysis). It counts as biochemical. In short, it runs like this: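 Compounds tested as 15-point, 3-fold dilution series (300 μM to 0.0002 μM) in DMSO. Kinetic absorbance at 360 nm read every minute for 10–20 min, initial velocity taken from the linear portion.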

Assay [1] deals with T2, CD73 on U138 human neuroglioma cells (Homo sapiens, UniProt P21589).
T2 construct: U138 cells were obtained from ATCC and cultured in DMEM with 10% FBS; host or cells: U138 human neuroglioma cells
T2 sequence (P21589 27-549): T1 sequence (P21589 27-549)
The assay is described as follows: CD73 Cell-Based Assay (inorganic phosphate from AMP, malachite green). The following applies: AMP substrate, 2 hours at 37° C., read-out: CD73 Cell-Based assay IC50. In short, it runs like this:
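U138 cells, seeded the day before at 2500 per well, were washed and given AMP substrate (200 μM in the added mixture, before dilution into the buffer) together with compound. After 2 h at 37 °C in 5% CO2, inorganic phosphate in the supernatant was measured with malachite green.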

[2] abbreviates: 0.25 nM hCD73, 25 μM AMP, read-out: CD73 Enzyme Assay IC50.

Like-named read-outs stand apart in the source and are kept apart here. A value given as a limit tells only on which side of the number the result lay.

With `C[C@@H](Nc1c(C#N)c(Cl)nc2c1ncn2[C@@H]1O[C@H](COP(=O)(O)CP(=O)(O)O)[C@@H](O)[C@@H]1F)c1ccc(F)cc1` [Compound 250], the IC50 (on Human CD73 (setting [2]); in assay [1]) was less than 10 nM in each case.
In the case of `C[C@@H](Nc1c(C#N)c(Cl)nc2c1ccn2[C@@H]1O[C@H](CS(=O)(=O)CP(=O)(O)O)[C@@H](O)[C@H]1O)c1ccc(C#N)cc1` [Compound 178], the IC50 (on Human CD73 (setting [2]); in assay [1]) was less than 10 nM throughout.
`N#Cc1c(Cl)nc2c(ncn2[C@@H]2O[C@H](CS(=O)(=O)CP(=O)(O)O)[C@@H](O)[C@H]2O)c1NC1CC(F)(F)C1` [Compound 113, (((((2S,3S,4R,5R)-5-(5-chloro-6-cyano-7-((3,3-difluorocyclobutyl)amino)-3H-imidazo[4,5-b]pyridin-3-yl)-3,4-dihydroxytetrahydrofuran-2-yl)methyl)sulfonyl)methyl)phosphonic acid]: the IC50 (on Human CD73 (setting [2]); in assay [1]) was less than 10 nM in each case.
Take `N#Cc1c(Cl)nc2c(ncn2[C@@H]2O[C@H](CS(=O)(=O)CP(=O)(O)O)[C@@H](O)[C@H]2O)c1N1CCC(F)(F)C1` [Compound 118]: the IC50 (on Human CD73 (setting [2]); in assay [1]) was less than 10 nM in each case.
`N#Cc1c(Cl)nc2c(ccn2[C@@H]2O[C@H](CS(=O)(=O)CP(=O)(O)O)[C@@H](O)[C@@H]2F)c1NC1CC(F)(F)C1` [Compound 169]: the IC50 (on Human CD73 (setting [2]); in assay [1]) was less than 10 nM throughout.
On to `C[C@H](Nc1c(C#N)c(Cl)nc2c1ncn2[C@@H]1O[C@H](COP(=O)(O)CP(=O)(O)O)[C@@H](O)[C@H]1O)c1ccc(F)cc1` [Compound 215, (((((2R,3S,4R,5R)-5-(5-chloro-6-cyano-7-(((S)-1-(4-fluorophenyl)ethyl)amino)-3H-imidazo[4,5-b]pyridin-3-yl)-3,4-dihydroxytetrahydrofuran-2-yl)methoxy)(hydroxy)phosphoryl)methyl)phosphonic acid], for which the concentration for half-maximal inhibition (IC50) (at Human CD73; in assay [1]) was less than 10 nM each time.
Consider `CN(c1c(C#N)c(Cl)nc2c1ccn2[C@@H]1O[C@H](CS(=O)(=O)CP(=O)(O)O)[C@@H](O)[C@H]1O)C1CC(F)(F)C1` [Compound 154], for which the concentration for half-maximal inhibition (IC50) (at Human CD73 (setting [2]); in assay [1]) was less than 10 nM throughout.
On to `N#Cc1c(Cl)nc2c(ccn2[C@@H]2O[C@H](CS(=O)(=O)CP(=O)(O)O)[C@@H](O)[C@H]2O)c1N[C@H]1C[C@H](F)C1` [Compound 76, (((((2S,3S,4R,5R)-5-(6-chloro-5-cyano-4-(((1r,3R)-3-fluorocyclobutyl)amino)-1H-pyrrolo[2,3-b]pyridin-1-yl)-3,4-dihydroxytetrahydrofuran-2-yl)methyl)sulfonyl)methyl)phosphonic acid], for which the IC50 (on Human CD73 (setting [2]); in assay [1]) was less than 10 nM in each case.
On to `N#Cc1c(Cl)nc2c(ccn2[C@@H]2O[C@H](COCP(=O)(O)O)[C@@H](O)[C@H]2O)c1N1CC[C@@H](F)C1` [Compound 66], for which the IC50 (on Human CD73 (setting [2]); in assay [1]) was less than 10 nM throughout.
With `CC(C)Nc1c(C#N)c(Cl)nc2c1ccn2[C@@H]1O[C@H](COP(=O)(O)CP(=O)(O)O)[C@@H](O)[C@H]1O` [Compound 207], the IC50 (on Human CD73 (setting [2]); in assay [1]) was less than 10 nM in each case.
For the compound `C[C@H](Nc1c(C#N)c(Cl)nc2c1cnn2[C@@H]1O[C@H](CS(=O)(=O)CP(=O)(O)O)[C@@H](O)[C@H]1O)c1ccc(C#N)cc1` [Compound 185], the IC50 (on Human CD73 (setting [2]); in assay [1]) was less than 10 nM each time.
Take `N#Cc1nc2c(ccn2[C@@H]2O[C@H](COCP(=O)(O)O)[C@@H](O)[C@H]2O)c(N2CCC(F)(F)C2)c1Cl` [Compound 102]: the IC50 (at Human CD73 (setting [2]); in assay [1]) was less than 10 nM in each case.
Regarding `C[C@@H](Nc1c(C#N)c(Cl)nc2c1ccn2[C@@H]1O[C@H](COCP(=O)(O)O)[C@@H](O)[C@H]1O)c1ccc(F)cc1` [Compound 7], the IC50 (at Human CD73 (setting [2]); in assay [1]) was less than 10 nM each time.
As for `N#Cc1c(Cl)nc2c(ccn2[C@@H]2O[C@H](COP(=O)(O)CP(=O)(O)O)[C@@H](O)[C@H]2O)c1NC1CCC1` [Compound 36], the IC50 (at Human CD73 (setting [2]); in assay [1]) was less than 10 nM each time.
With `N#Cc1c(Cl)nc2c(cnn2[C@@H]2O[C@H](COCP(=O)(O)O)[C@@H](O)[C@H]2O)c1N1CC2CCCC2C1` (stereo partly drawn) [Compound 61], the IC50 (on Human CD73 (setting [2]); in assay [1]) was less than 10 nM throughout.
Consider `N#Cc1c(Cl)nc2c(ncn2[C@@H]2O[C@H](COCP(=O)(O)O)[C@@H](O)[C@H]2O)c1N1CC(F)(F)C1` [Compound 82], for which the IC50 (at Human CD73 (setting [2]); in assay [1]) was less than 10 nM each time.
Take `N#Cc1c(Cl)nc2c(c(F)cn2[C@@H]2O[C@H](COCP(=O)(O)O)[C@@H](O)[C@H]2O)c1NC1CC(F)(F)C1` [Compound 160]: the IC50 (at Human CD73 (setting [2]); in assay [1]) was less than 10 nM each time.
As to `C[C@H](Nc1c(C#N)c(Cl)nc2c1ncn2[C@@H]1O[C@H](COP(=O)(O)CP(=O)(O)O)[C@@H](O)[C@@H]1F)c1ccc(F)cc1` [Compound 245], the IC50 (on Human CD73 (setting [2]); in assay [1]) was less than 10 nM each time.
Consider `N#Cc1c(Cl)nc2c(ccn2[C@@H]2O[C@H](COP(=O)(O)CP(=O)(O)O)[C@@H](O)[C@@H]2F)c1N1CCC(F)(F)C1` [Compound 96], for which the IC50 (on Human CD73 (setting [2]); in assay [1]) was less than 10 nM each time.
Take `N#Cc1c(Cl)nc2c(ncn2[C@@H]2O[C@H](COCP(=O)(O)O)[C@@H](O)[C@H]2O)c1N1CC2CC2C1` (stereo partly drawn) [Compound 58]: the IC50 (at Human CD73 (setting [2]); in assay [1]) was less than 10 nM in each case.
As to `C[C@@H](Nc1c(C#N)c(Cl)nc2c1ccn2[C@@H]1O[C@H](CS(=O)(=O)CP(=O)(O)O)[C@@H](O)[C@H]1O)c1ccc(F)cc1` [Compound 27, (((((2S,3S,4R,5R)-5-(6-chloro-5-cyano-4-(((R)-1-(4-fluorophenyl)ethyl)amino)-1H-pyrrolo[2,3-b]pyridin-1-yl)-3,4-dihydroxytetrahydrofuran-2-yl)methyl)sulfonyl)methyl)phosphonic acid], the IC50 (at Human CD73 (setting [2]); in assay [1]) was less than 10 nM in each case.
With `C[C@@H](Nc1c(C#N)c(Cl)nc2c1cnn2[C@@H]1O[C@H](CS(=O)(=O)CP(=O)(O)O)[C@@H](O)[C@H]1O)c1ccc(C#N)cc1` [Compound 192], the IC50 (at Human CD73 (setting [2]); in assay [1]) was 10 to 100 nM throughout.
With `C[C@@H](Nc1c(C#N)c(Cl)nc2c1ccn2[C@@H]1O[C@H](COP(=O)(O)CP(=O)(O)O)[C@@H](O)[C@@H]1F)c1ccc(F)cc1` [Compound 229], the IC50 (on Human CD73 (setting [2]); in assay [1]) was less than 10 nM in each case.
With `N#Cc1c(Cl)nc2c(ccn2[C@@H]2O[C@H](CS(=O)(=O)CP(=O)(O)O)[C@@H](O)[C@H]2O)c1NC1CC(F)(F)C1` [Compound 20], the half-inhibitory concentration (IC50) (on Human CD73 (setting [2]); in assay [1]) was less than 10 nM each time.
On to `N#Cc1c(Cl)nc2c(cnn2[C@@H]2O[C@H](CS(=O)(=O)CP(=O)(O)O)[C@@H](O)[C@H]2O)c1NC1CC(F)(F)C1` [Compound 129], for which the IC50 (on Human CD73 (setting [2]); in assay [1]) was less than 10 nM each time.
For the compound `N#Cc1c(Cl)nc2c(cnn2[C@@H]2O[C@H](COP(=O)(O)CP(=O)(O)O)[C@@H](O)[C@H]2O)c1N[C@H]1C[C@@H](F)C1` [Compound 321], the IC50 (at Human CD73 (setting [2]); in assay [1]) was less than 10 nM in each case.
Turning to `N#Cc1c(Cl)nc2c(cnn2[C@@H]2O[C@H](COCP(=O)(O)O)[C@@H](O)[C@H]2O)c1NC1CCCC1` [Compound 69, ((((2R,3S,4R,5R)-5-(6-chloro-5-cyano-4-(cyclopentylamino)-1H-pyrazolo[3,4-b]pyridin-1-yl)-3,4-dihydroxytetrahydrofuran-2-yl)methoxy)methyl)phosphonic acid], the IC50 (on Human CD73 (setting [2]); in assay [1]) was less than 10 nM in each case.
Consider `N#Cc1cnc2c(ccn2[C@@H]2O[C@H](COP(=O)(O)CP(=O)(O)O)[C@@H](O)[C@H]2O)c1NC1CCCC1` [Compound 48], for which the IC50 (at Human CD73 (setting [2]); in assay [1]) was less than 10 nM in each case.
Regarding `N#Cc1nc2c(ccn2[C@@H]2O[C@H](CS(=O)(=O)CP(=O)(O)O)[C@@H](O)[C@H]2O)c(NC2CC(F)(F)C2)c1Cl` [Compound 142], the IC50 (on Human CD73 (setting [2]); in assay [1]) was less than 10 nM each time.
As to `Cc1nc2c(ccn2[C@@H]2O[C@H](COCP(=O)(O)O)[C@@H](O)[C@H]2O)c(NC2CCCC2)c1C#N` [Compound 44], the IC50 (at Human CD73 (setting [2]); in assay [1]) was less than 10 nM in each case.
Turning to `N#Cc1c(Cl)nc2c(ccn2[C@@H]2O[C@H](COCP(=O)(O)O)[C@@H](O)[C@H]2O)c1N1CC(F)(F)C1` [Compound 65], the IC50 (on Human CD73 (setting [2]); in assay [1]) was less than 10 nM in each case.
With `N#Cc1nc2c(ccn2[C@@H]2O[C@H](CS(=O)(=O)CP(=O)(O)O)[C@@H](O)[C@H]2O)c(NC2CC3(CC3)C2)c1Cl` [Compound 221], the IC50 (at Human CD73 (setting [2]); in assay [1]) was less than 10 nM in each case.
Turning to `C[C@@H](Nc1c(C#N)c(Cl)nc2c1cnn2[C@@H]1O[C@H](CS(=O)(=O)CP(=O)(O)O)[C@@H](O)[C@H]1O)c1cccc(F)c1` [Compound 182], the IC50 (at Human CD73 (setting [2]); in assay [1]) was less than 10 nM each time.

These data come from patent US12331068B2, “Compositions and methods for inhibiting CD73” (Peloton Therapeutics, Inc., priority 2018, dated 2025).
